From patent EP1029544A1, “INTRA-CANCER-CELL NUCLEASE ACTIVATOR” (Nippon Shinyaku Co., Ltd., priority 1997, dated 1999)
Values after ≈ are worked out from the molar mass of the structure shown.

Key:
Test in all cases: Growth inhibitory effect (in vitro), MTT method
Format in all cases: cell-based
A-204 = details: Homo sapiens, A204, 72 h; A-204, Rhabdomyosarcoma; 3 days
Method: (§1) A 96-well plate was seeded with cells at a density of 10^4 cells/well. On the following day, the activator of Example 4 or adriamycin was added and the cultivation was continued. After 3 days the viable cell count was determined by the MTT method.

A431 = details: Homo sapiens, A-431, 72 h; A431, Epidemoid carcinoma; 3 days
Method: as §1

A546 = details: 72 h; A546, Lung carcinoma; 3 days
Method: as §1

A673 = details: Homo sapiens, 72 h; A673, Rhabdomyosarcoma; 3 days
Method: as §1

AsPC-1 = details: Homo sapiens, ASPC1, 72 h; AsPC-1, Pancreatic adenocarcinoma; 3 days
Method: as §1

BALB/c CL.7 = details: 72 h; BALB/c CL.7, Mouse normal fibroblast (non-cancer); 3 days
Method: as §1

BALB/c3T3 cloneA31 = details: 72 h; BALB/c3T3 cloneA31, Mouse embryonic cell (non-cancer); 3 days
Method: as §1

BHK-21 = details: Mesocricetus auratus, 72 h; BHK-21, Hamster kidney cell (non-cancer); 3 days
Method: as §1

BNL CL.2 = details: 72 h; BNL CL.2, Mouse normal liver cell (non-cancer); 3 days
Method: as §1

CALU6 = details: Homo sapiens, Calu-6, 72 h; CALU6, Lung anaplastic carcinoma; 3 days
Method: as §1

CHO-K1 = details: Cricetulus griseus, 72 h; CHO-K1, Chinese hamster ovary cell (non-cancer); 3 days
Method: as §1

COLO320DM = details: Homo sapiens, COLO 320DM, 72 h, Colon adenocarcinoma, 3 days
Method: as §1

Clone9 = details: 72 h; Clone9, Rat normal liver cell (non-cancer); 3 days
Method: as §1

DU145 = details: Homo sapiens, DU-145, 72 h; DU145, Prostate carcinoma; 3 days
Method: as §1

G-361 = details: Homo sapiens, 72 h; G-361, Malignant melanoma; 3 days
Method: as §1

HCC-T = details: 72 h, Liver cancer, 3 days
Method: as §1

HT1376 = details: Homo sapiens, HT-1376, 72 h; HT1376, Bladder carcinoma; 3 days
Method: as §1

HT144 = details: Homo sapiens, HT-144, 72 h; HT144, Malignant melanoma; 3 days
Method: as §1

HeLaS3 = details: Homo sapiens, HeLa S3, 72 h; HeLaS3, Cervix epitheloid carcinoma; 3 days
Method: as §1

Hs0578T = details: 72 h, Breast ductal carcinoma, 3 days
Method: as §1

KB = details: Homo sapiens, 72 h, Oral epidemiod carcinoma, 3 days
Method: as §1

KM12-HX = details: Homo sapiens, 72 h, Colon cancer, 3 days
Method: as §1

LoVo = details: Homo sapiens, 72 h, Colon adenocarcinoma, 3 days
Method: as §1

Ls174T = details: Homo sapiens, 72 h, Colon adenocarcinoma, 3 days
Method: as §1

MDA-MB-134VI = details: Homo sapiens, 72 h, Breast ductal carcinoma, 3 days
Method: as §1

MDA-MB-453 = details: Homo sapiens, 72 h; MDA-MB-453, Breast carcinoma; 3 days
Method: as §1

MDA-MB-468 = details: Homo sapiens, 72 h; MDA-MB-468, Breast adenocarcinoma; 3 days
Method: as §1

Malme 3M = details: Homo sapiens, 72 h, Malignant melanoma, 3 days
Method: as §1

McA-8994 = details: 72 h; McA-8994, Rat hepatoma; 3 days
Method: as §1

NC65 = details: 72 h; NC65, Pancreatic cancer; 3 days
Method: as §1

NCTCclone1469 = details: 72 h; NCTCclone1469, Mouse normal liver cell (non-cancer); 3 days
Method: as §1

NIH/3T3 = details: NIH3T3, 72 h; NIH/3T3, Mouse embryonic cell (non-cancer); 3 days
Method: as §1

NRK-49F = details: 72 h, Rat normal kidney fibroblast (non-cancer), 3 days
Method: as §1

OVCAR3 = details: Homo sapiens, OVCAR-3, 72 h; OVCAR3, Ovary adenocarcinoma; 3 days
Method: as §1

PC-3 = details: Homo sapiens, 72 h; PC-3, Prostate adenocarcinoma; 3 days
Method: as §1

PLC/PRF/5 = details: Homo sapiens, 72 h; PLC/PRF/5, Hepatoma; 3 days
Method: as §1

RD = details: Homo sapiens, 72 h, Rhabdomyosarcoma, 3 days
Method: as §1

RT4 = details: Homo sapiens, RT-4, 72 h; RT4, Bladder papillima; 3 days
Method: as §1

SAOS2 = details: Homo sapiens, SAOS-2, 72 h; SAOS2, Osteogenic sarcoma; 3 days
Method: as §1

SK-BR-3 = details: Homo sapiens, 72 h; SK-BR-3, Breast adenocarcinoma; 3 days
Method: as §1

SK-HEP-1 = details: Homo sapiens, SK-HEP1, 72 h; SK-HEP-1, Liver adenocarcinoma; 3 days
Method: as §1

SK-OV-3 = details: Homo sapiens, 72 h; SK-OV-3, Ovary adenocarcinoma; 3 days
Method: as §1

SW480 = details: Homo sapiens, 72 h; SW480, Colon adenocarcinoma; 3 days
Method: as §1

Swiss/3T3 = details: 72 h; Swiss/3T3, Mouse embryonic cell (non-cancer); 3 days
Method: as §1

T47D = details: Homo sapiens, 72 h, Breast ductal carchoma, 3 days
Method: as §1

TSU-PR-1 = details: Homo sapiens, TSU-Pr1, 72 h; TSU-PR-1, Prostate cancer; 3 days
Method: as §1

WM-266-4 = details: Homo sapiens, 72 h; WM-266-4, Melanoma; 3 days
Method: as §1

WRL68 = details: 72 h; WRL68, Human embryo liver cell (non-cancer); 3 days
Method: as §1

For COc1cccc2c1C(=O)c1c(O)c3c(c(O)c1C2=O)C[C@@](O)(C(=O)CO)C[C@@H]3O[C@H]1C[C@H](N)[C@H](O)[C@H](C)O1 [Adriamycin], the IC50 (A-204) was 0.076 µg/mL (≈ 0.14 µM), the IC50 (A431) was 0.052 µg/mL (≈ 0.0957 µM) and the IC50 (A546) was 0.831 µg/mL (≈ 1.53 µM). For the same compound, the IC50 (A673) was 0.104 µg/mL (≈ 0.191 µM), the IC50 (AsPC-1) was 0.8 µg/mL (≈ 1.47 µM) and the IC50 (BALB/c CL.7) was 0.117 µg/mL (≈ 0.215 µM). For the same compound, the IC50 (BALB/c3T3 cloneA31) was 0.427 µg/mL (≈ 0.786 µM), the IC50 (BHK-21) was 0.047 µg/mL (≈ 0.0865 µM) and the IC50 (BNL CL.2) was 0.398 µg/mL (≈ 0.732 µM). It also gave an IC50 (CALU6) of 0.282 µg/mL (≈ 0.519 µM), an IC50 (CHO-K1) of 0.02 µg/mL (≈ 0.0368 µM) and an IC50 (COLO320DM) of 0.838 µg/mL (≈ 1.54 µM). For the same compound, the IC50 (Clone9) was 0.228 µg/mL (≈ 0.419 µM), the IC50 (DU145) was 0.236 µg/mL (≈ 0.434 µM) and the IC50 (G-361) was 0.146 µg/mL (≈ 0.269 µM). It also gave an IC50 (HCC-T) of 0.076 µg/mL (≈ 0.14 µM), an IC50 (HT1376) of 0.217 µg/mL (≈ 0.399 µM) and an IC50 (HT144) of 0.219 µg/mL (≈ 0.403 µM). The IC50 (HeLaS3) was 0.049 µg/mL (≈ 0.0902 µM), the IC50 (Hs0578T) was 0.76 µg/mL (≈ 1.4 µM) and the IC50 (KB) was 0.025 µg/mL (≈ 0.046 µM). It also gave an IC50 (KM12-HX) of 0.13 µg/mL (≈ 0.239 µM), an IC50 (LoVo) of 0.065 µg/mL (≈ 0.12 µM) and an IC50 (Ls174T) of 0.096 µg/mL (≈ 0.177 µM). The IC50 (MDA-MB-134VI) was 0.081 µg/mL (≈ 0.149 µM), the IC50 (MDA-MB-453) was 0.143 µg/mL (≈ 0.263 µM) and the IC50 (MDA-MB-468) was 0.057 µg/mL (≈ 0.105 µM). For the same compound, the IC50 (Malme 3M) was 0.114 µg/mL (≈ 0.21 µM), the IC50 (McA-8994) was over 1 µg/mL and the IC50 (NC65) was 0.073 µg/mL (≈ 0.134 µM). For the same compound, the IC50 (NCTCclone1469) was 0.101 µg/mL (≈ 0.186 µM), the IC50 (NIH/3T3) was 0.102 µg/mL (≈ 0.188 µM) and the IC50 (NRK-49F) was over 1 µg/mL. The IC50 (OVCAR3) was over 1 µg/mL, the IC50 (PC-3) was over 1 µg/mL and the IC50 (PLC/PRF/5) was 0.042 µg/mL (≈ 0.0773 µM). For the same compound, the IC50 (RD) was 0.208 µg/mL (≈ 0.383 µM), the IC50 (RT4) was 0.058 µg/mL (≈ 0.107 µM) and the IC50 (SAOS2) was 0.075 µg/mL (≈ 0.138 µM). The IC50 (SK-BR-3) was 0.078 µg/mL (≈ 0.144 µM), the IC50 (SK-HEP-1) was 0.302 µg/mL (≈ 0.556 µM) and the IC50 (SK-OV-3) was 0.252 µg/mL (≈ 0.464 µM). It also gave an IC50 (SW480) of 0.097 µg/mL (≈ 0.178 µM), an IC50 (Swiss/3T3) of 0.903 µg/mL (≈ 1.66 µM) and an IC50 (T47D) of 0.114 µg/mL (≈ 0.21 µM). It also gave an IC50 (TSU-PR-1) of 0.572 µg/mL (≈ 1.05 µM), an IC50 (WM-266-4) of 0.206 µg/mL (≈ 0.379 µM) and an IC50 (WRL68) of 0.283 µg/mL (≈ 0.521 µM).
